This is an account of results in US20110207760A1, “SN-38 COMPOSITIONS” (priority 2010, published 2011).

Data set [1] is described as follows: Pharmacokinetics of SN-38 and SN-38G after i.v. dosing of SN-38 in 40% SBECD. Format: in vivo, Female Sprague-Dawley rats. The settings on record: female, Sprague-Dawley, rat, in vivo, iv. On the procedure:
Female Sprague-Dawley rats, 4 animals per group received i.v. injections of SN-38 (doses 0.65 mg/kg and 2 mg/kg) in 40% SBECD. The SN-38 solution for the treatment was prepared by the dilution of concentrated composition of the Example 1 with water. The blood plasma samples were collected from each group of animals, extracted using liquid extraction with cold methanol/acetonitrile mixture (1:1 v/v), and analyzed using a HPLC method with fluorescent detection. The results, including levels of SN-38 and SN-38G in plasma and calculated values of area under the curve (AUC) for SN-38 and SN-38G are presented in Tables 5 and 6 below.

A further data set addresses T1, topoisomerase I enzyme (Homo sapiens, UniProt P11387).
T1 sequence (P11387 1-765): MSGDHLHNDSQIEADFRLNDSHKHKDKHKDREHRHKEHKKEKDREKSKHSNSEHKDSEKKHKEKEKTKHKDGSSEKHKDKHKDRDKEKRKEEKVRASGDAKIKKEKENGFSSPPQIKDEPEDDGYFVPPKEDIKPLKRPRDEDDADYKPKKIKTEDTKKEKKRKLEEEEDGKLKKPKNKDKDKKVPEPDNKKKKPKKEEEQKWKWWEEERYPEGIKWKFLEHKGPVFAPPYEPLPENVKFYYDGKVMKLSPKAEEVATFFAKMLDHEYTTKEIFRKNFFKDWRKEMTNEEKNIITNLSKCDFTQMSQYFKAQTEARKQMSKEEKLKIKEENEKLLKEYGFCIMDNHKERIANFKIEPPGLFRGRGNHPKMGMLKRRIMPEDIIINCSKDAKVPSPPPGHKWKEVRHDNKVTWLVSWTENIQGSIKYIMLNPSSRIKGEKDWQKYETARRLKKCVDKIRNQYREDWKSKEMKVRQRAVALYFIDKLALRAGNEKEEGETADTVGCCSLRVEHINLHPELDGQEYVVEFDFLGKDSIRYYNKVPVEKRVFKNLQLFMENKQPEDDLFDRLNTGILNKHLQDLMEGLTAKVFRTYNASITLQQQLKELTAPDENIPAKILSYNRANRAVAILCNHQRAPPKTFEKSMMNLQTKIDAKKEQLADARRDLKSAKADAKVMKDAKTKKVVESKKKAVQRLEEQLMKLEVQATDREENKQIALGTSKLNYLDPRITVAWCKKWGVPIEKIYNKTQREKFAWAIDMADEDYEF
The following applies: estimated; times more active than irinotecan; cited from earlier work.

In the case of `CCc1c2c(nc3ccc(O)cc13)-c1cc3c(c(=O)n1C2)COC(=O)[C@]3(O)CC` [SN-38, (4S)-4,11-Diethyl-4,9-dihydroxy-1H-pyrano[3′,4′:6,7]indolizino[1,2-b]quinoline-3,14(4H,12H)dione], in data set [1] (0.65 mg/kg), the AUC is 106 ng·h/mL, the “Ratio AUC SN-38/SN-38G” value amounted to 0.39, the concentration at 0.17 h turned out to be 157 ng/mL and the concentration at 0.5 h was 41.3 ng/mL. In data set [1] (0.65 mg/kg), this compound registered a concentration at 0.75 h of 26.1 ng/mL, a concentration at 1 h of 18.2 ng/mL, a concentration at 3 h of 5.8 ng/mL and a concentration at 6 h of 1.2 ng/mL. In data set [1] (2 mg/kg), this compound came in with an exposure (AUC) of 323 ng·h/mL, a concentration at 0.17 h of 625 ng/mL, a concentration at 0.5 h of 157 ng/mL and a concentration at 0.75 h of 51.4 ng/mL. In data set [1] (2 mg/kg), this compound showed a concentration at 1 h of 29.8 ng/mL, a concentration at 3 h of 5.5 ng/mL and a concentration at 6 h of 5.3 ng/mL. For the same compound, the “activity relative to irinotecan” value at topoisomerase I enzyme is recorded as “up to 1000 times”.

Broadly, the AUC is the area under the concentration-time curve, a measure of exposure. A high value points to high exposure.
